According to patent US11918568B2, “Fused ring compound having urea structure” (DAIICHI SANKYO COMPANY, LIMITED, priority 2018, dated 2024):
pEC50: −log10 of the molar value. Entries after “also recorded” stand apart in the source; their conditions may differ.

Legend:
human NAMPT enzyme = human NAMPT enzyme (Homo sapiens (Human), UniProt P43490); assay: NAMPT enzyme activating effect (in vitro cell-free enzyme assay); assay type: biochemical; conditions: 2 ng/mL human NAMPT enzyme, 1-h incubation at 25° C., fluorescence of NMN derivative
Procedure: The NAMPT enzyme assay was conducted in accordance with the method of Formentini et al. […] Hereinafter, the procedures will be briefly described. The NAMPT enzyme reaction was carried out using polypropylene 384 well V shaped black plate (Greiner Bio One International GmbH). […] Then, 22 μL of 88% formic acid was added and the mixture was further incubated for 30 min in the dark. The NAMPT enzyme activity was calculated as the difference between fluorescence intensity (Ex 380 nm/Em 450 nm) from the reaction of a test compound treatment group and fluorescence intensity from control reaction free from the NAMPT enzyme. [NAMPT enzyme activity]=[Fluorescence intensity of the test substance treatment group]−[Mean fluorescence intensity of the control reaction free from the NAMPT enzyme] EC50 value of each compound was calculated from the enzyme activities of the compound at various concentrations by using GraphPad Prism software (GraphPad Software) (Table 1)

HEK293A cells = assay: Effect of NAMPT activator on the intracellular NAD+ level (in vitro cell-based assay); conditions: HEK293-A, 3 h culture with compound, NAD+/NADH-Glo assay, read-out: EC50 (intracellular NAD+ content)
Procedure: HEK293A cells were cultured in Dulbecco's Modified Eagle Medium (DMEM (high glucose)) containing 10% fetal bovine serum (FBS), non-essential amino acid (NEAA), and antibiotic-antimycotic [reaction medium]. On the day before the test, HEK293A cells were inoculated at a ratio of 3.0×10^4 cells/80 μL to 96 well poly-D-lysine coated plate and cultured overnight in a CO2 incubator.
On the day of the test, each test compound diluted with reaction medium to a concentration of 5 times the final concentration was added at a ratio of 20 μL/well, and the cells were further cultured for 3 h. After removal of the medium, the cells were lysed in 50 μL/well of Bicarbonate Base Buffer (100 mM sodium carbonate, 20 mM sodium bicarbonate, 100 mM nicotinamide, 20 mM Triton X-100) containing 1% dodecyl trimethyl-ammonium bromide (DTAB). The NAD^+ content in the cell extract was measured using NAD^+/NADH-Glo assay kit according to the manufacturer's instructions. Hereinafter, the procedures will be briefly described. 20 μL of the lysate was separated, and 10 μL of 0.4 N HCL was added thereto, followed by incubation at 60° C. for 15 min and subsequently at 25° C. for 10 min. The mixture was neutralized by the addition of 10 μL of 0.5 M Trizma base solution and then diluted 10-fold with distilled water. 15 μL of the diluted sample was mixed with an equal amount (15 μL) of NAD^+/NADH-Glo reagent in 384 well black plate, and the mixture was incubated for 30 min in the dark. Then, chemiluminescence intensity was measured.
EC50 value of each compound was calculated from the calculated values of the compound at various concentrations using GraphPad Prism software (Table 2).

C57BL/6N mice [1] = assay: Tissue NAD+ level in normal mice; assay type: in vivo, mouse; conditions: normal C57BL/6N mice, 30 or 100 mg/kg orally, 24 h after administration, LC/MS
Procedure: (§1) 24 h after the administration, each mouse was sacrificed by exsanguination. The liver, gastrocnemius, soleus, and brown adipose tissues were harvested. Each tissue was homogenized with a 10- or 100-fold amount of 2 M perchloric acid per its weight. Then, the samples were centrifuged and the supernatant was neutralized with 5 M […]. After removal of potassium perchlorate, the NAD^+ concentration in the supernatant of sample was measured using LC/MS.

C57BL/6N DIO mice [2] = assay: Tissue NAD+ level in DIO mouse - 2 (major tissues); assay type: in vivo; conditions: 30 mg/kg orally, 24 h after administration, LC/MS
Procedure: as §1, with “exanguination.” for “exsanguination.”, “heart, kidney, spleen, lung,” for “liver, gastrocnemius, soleus,”, “white” for “brown”, “harvested. For a control, the same organs as above were harvested from 8-week-old male C57BL/6N mice.” for “harvested.”

C57BL/6N DIO mice [3] = assay: Anti-obesity effect (DIO mouse, free feeding); assay type: in vivo; conditions: DIO mice freely fed high-fat diet, 30 mg/kg orally once a day for 3 wk, vs vehicle group
Description: 45-week-old male C57BL/6N DIO mice were each acclimatized for 1 wk under individual housing. Then, the mice were divided into 2 groups each involving 6 mice with their weights, amounts of weight change, and food intakes during the acclimatization period as indexes. Each mouse was freely fed a purified high-fat diet (D12451) for 3 wk under individual rearing. […] The weight was compared between the test groups.

C57BL/6N mice [4] = assay: NAD+ level in retina (normal mouse); assay type: in vivo; conditions: normal C57BL/6N mice, 30 mg/kg orally, 4 h after administration, LC/MS
Procedure: 4 h after the administration, each mouse was sacrificed by exanguination. The retina was harvested from both eyes. The retina (4 eye pools per sample) was homogenized with a 100-fold amount of 2 M perchloric acid per retinal tissue weight. Then, the samples were centrifuged and the supernatant was neutralized with 5 M […]. After removal of potassium perchlorate, the NAD^+ concentration in the supernatant sample was measured using LC/MS.

C57BL/6N DIO mice [5] = assay: Tissue NAD+ level in diet-induced obese (DIO) mice; assay type: in vivo, mouse; conditions: 30 or 100 mg/kg orally, 24 h after administration, LC/MS
Procedure: as §1

C57BL/6N DIO mice [6] = assay: Energy expenditure in DIO mouse (oxygen consumption); assay type: in vivo; conditions: 100 mg/kg orally once a day, vs vehicle group
Procedure: 48-week-old male C57BL/6N DIO mice were divided into 2 groups each involving 4 mice. Each mouse was acclimatized for 3 d under individual housing and then fasted overnight. […] Oxygen consumptions (VO2) and carbon dioxide outputs (VCO2) were measured for approximately 73 h (approximately 9 h under fasting (on the order of 9:00 to 18:00) and approximately 64 h under feeding (on the order of 18:00 to 10:00 of two days later)) using Comprehensive Lab Animal Monitoring System (Columbus Instruments International Corp.).

WKY rats = conditions: 5 mg/kg intraperitoneally 0.5 h before Main FST, vs vehicle control

Chain of human NAMPT enzyme (P43490 whole entry): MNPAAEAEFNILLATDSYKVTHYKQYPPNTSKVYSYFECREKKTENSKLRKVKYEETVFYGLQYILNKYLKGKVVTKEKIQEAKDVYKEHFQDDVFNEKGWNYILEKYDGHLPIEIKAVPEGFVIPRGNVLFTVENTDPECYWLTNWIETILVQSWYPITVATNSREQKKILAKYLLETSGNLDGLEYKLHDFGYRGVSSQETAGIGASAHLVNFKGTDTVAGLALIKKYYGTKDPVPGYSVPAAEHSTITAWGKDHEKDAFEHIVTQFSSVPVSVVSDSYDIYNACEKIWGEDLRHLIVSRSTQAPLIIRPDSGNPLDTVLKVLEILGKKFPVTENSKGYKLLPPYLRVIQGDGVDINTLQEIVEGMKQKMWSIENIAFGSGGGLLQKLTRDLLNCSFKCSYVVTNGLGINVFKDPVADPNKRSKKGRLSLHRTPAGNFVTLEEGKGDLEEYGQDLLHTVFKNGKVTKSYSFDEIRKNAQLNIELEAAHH

SMILES	pEC50 (human NAMPT enzyme)	pEC50 (HEK293A cells)	further results
Cc1ccccc1-c1nc2ccc(NC(=O)NCc3ccncc3)cc2o1 [Example 1, N-[2-(2-Methylphenyl)-1,3-benzoxazol-6-yl]-N′-[(pyridin-4-yl)methyl]urea]	6.96	6.37	–
O=C(NCc1ccncc1)Nc1ccc2nc(-c3ccccc3)oc2c1 [Example 2, N-(2-Phenyl-1,3-benzoxazol-6-yl)-N′-[(pyridin-4-yl)methyl]urea]	7.30	6.72	NAD+ levels in liver, gastrocnemius, soleus, and brown adipose tissues (C57BL/6N mice [1]): increases NAD^+ levels; NAD+ levels in major tissues (heart, kidney, spleen, lung, white adipose tissue) (C57BL/6N DIO mice [2]): NAD^+ levels were increased; also recorded: increases NAD^+ levels; body weight change (C57BL/6N DIO mice [3]): weight lowering effect; also recorded: decreases body weights; NAD+ levels in retina (C57BL/6N mice [4]): NAD^+ levels were increased; also recorded: increases NAD^+ levels; NAD+ levels in liver, gastrocnemius, soleus, and brown adipose tissues (C57BL/6N DIO mice [5]): increases NAD^+ levels; oxygen consumption (VO2) per weight (C57BL/6N DIO mice [6]): increased an oxygen consumption per weight; also recorded: increases oxygen consumption
O=C(NCc1ccncc1)Nc1ccc2oc(-c3ccccc3)nc2c1 [Example 7, N-(2-Phenyl-1,3-benzoxazol-5-yl)-N′-[(pyridin-4-yl)methyl]urea]	6.39	6.27	–
O=C(NCc1ccncc1)Nc1ccc2nc(-c3ccccc3)nn2c1 [Example 8, N-(2-Phenyl[1,2,4]triazolo[1,5-a]pyridin-6-yl)-N′-[(pyridin-4-yl)methyl]urea]	7.10	6.68	–
N#Cc1c2ccc(NC(=O)NCc3ccncc3)cc2nn1-c1ccccc1 [Example 21, N-(3-Cyano-2-phenyl-2H-indazol-6-yl)-N′-[(pyridin-4-yl)methyl]urea]	6.96	6.64	–
Cn1nccc1-c1c(-c2ccccc2)nn2cc(NC(=O)NCc3ccncc3)ccc12 [Example 22, N-[3-(1-Methyl-1H-pyrazol-5-yl)-2-phenylpyrazolo[1,5-a]pyridin-6-yl]-N′-[(pyridin-4-yl)methyl]urea]	7.10	6.92	–
CCN(CC)C(=O)c1noc2cc(NC(=O)NCc3ccncc3)ccc12 [Example 50, N,N-Diethyl-6-({[(pyridin-4-yl)methyl]carbamoyl}amino)-1,2-benzoxazole-3-carboxamide]	6.62	6.35	–
COc1cccc(C2Cc3ccc(NC(=O)NCc4ccncc4)cc3O2)c1 (centres unmarked) [Example 52, N-[2-(3-Methoxyphenyl)-2,3-dihydro-1-benzofuran-6-yl]-N′-[(pyridin-4-yl)methyl]urea]	7.10	5.91	–
CCN(CC)C(=O)c1coc2cc(NC(=O)NCc3ccncc3)ccc12 [Example 55, N,N-Diethyl-6-({[(pyridin-4-yl)methyl]carbamoyl}amino)-1-benzofuran-3-carboxamide]	6.31	–	–
CCN(Cc1ccccc1)C(=O)c1noc2cc(NC(=O)NCc3ccncc3)ccc12 [Example 56, N-Benzyl-N-ethyl-6-({[(pyridin-4-yl)methyl]carbamoyl}amino)-1,2-benzoxazole-3-carboxamide]	7.52	–	–
O=C(NCc1ccncc1)Nc1ccc2c(C(=O)N3CC4CCC(C3)O4)noc2c1 [Example 57, N-[3-(8-Oxa-3-azabicyclo[3.2.1]octane-3-carbonyl)-1,2-benzoxazol-6-yl]-N′-[(pyridin-4-yl)methyl]urea]	6.72	–	–
CNC1(c2ccccc2Cl)CCCCC1=O (centres unmarked) [ketamine, Ketamine, reference compound]	–	–	immobility time in forced swimming test (WKY rats): significantly shortened the immobility time
